Entries after “also recorded” stand apart in the source; their conditions may differ. Where a SMILES comes first, the peptide text is derived from it. Primed or numbered codes have the meaning given here. Where no end group is shown, it is not given here. [ ]: non-standard residue; d: D form. PEG11 = NCCOCCOCCOCCOCCOCCOCCOCCOCCOCCOCCOCCC(=O)O; PEG11′ = not defined here
Tests used:
[1] = test system: non-small cell lung cancer cells; experiment: Cellular location of MGS, non-small cell lung cancer cells; type: cell-based; details: Intracellular = uptake confirmed, exact compartment not determined
Excerpt: (§1) The FOX-Three Platform has already been validated for targeting of cells and subcellular components. A number of validated MGSs are in various stages of development (Tables 1 and 2) for a variety of cell targeting systems. Methods of conjugating a variety of payloads to the peptide MGSs have been established without disrupting their targeting ability. […] While cell targeting has been established and there are a number of competing antibody-based technologies for targeting the surfaces of target cells, intracellular MGSs were not previously known. […] For example, delivery of a MAb intended to bind to proteins involved in DNA replication in the cell nucleus will be therapeutically ineffective if trapped in the Golgi or other locations in the cell. The FOX-Three screening process was recently refined to include subcellular location targeting as a selection criteria. MGSs have been isolated that accumulate in lysosomes, autophagosomes, and Golgi inside cancer cells, as well as target the plasma membrane (FIG. 3).

[2] = test system: non-small cell lung cancer cells; experiment: Binding to non-small cell lung cancer cells versus normal control cells; type: cell-based
Excerpt: (§2) The peptide EHPWFNMWSWATQVQE (SEQ ID NO:38) (H2009.2) has been pushed forward first.

[3] = test system: viable cells in culture; experiment: Cellular uptake of MGS-conjugated MAb (flow cytometry); type: cell-based
Protocol: Peptide MGS with a biotin tag (“handle”) was coupled to an anti-biotin antibody. The antibody was labeled with a fluorescent tag. Panel A. MGS peptide-antibody was incubated with viable cells in culture. Uptake of the antibody into the cells was determined by flow cytometry and normalized to antibody uptake with no MGS peptide. Panel B. Uptake of the antibody was determined by fluorescent microscopy and is indicated by red “dots” in the left panel. The MGS peptide can deliver the antibody to the desired location. Using a MGS peptide that internalizes and directs cargo to the Golgi apparatus in the cell, an antibody was delivered to that subcellular compartment. Panel C. MGS peptide-Antibody was injected I.V. into a tumor bearing mouse. At set times points, near-infrared imaging was used to determine uptake of the antibody in the tumor.
A small peptidic-MGS delivers a large monoclonal antibody into a cell in vitro and in vivo. Small peptides would not be able to carry a MAb that is almost greater than 60-times its molecular weight. Cells were treated with a MAb alone and no cellular uptake occurred. But when that MAb was conjugated to one of the identified MGS peptides, a […] increase in cellular uptake was seen.
Peptidic-MGSs can deliver a MAb and increases cellular uptake by 20-380 (FIG. 4A). Peptidic-MGS can deliver a MAb to a discrete subcellular location as dictated by the MGS. […]

[4] = test system: cancer cell; experiment: Delivery of cell impermeable protein-toxin, cancer cell death; type: cell-based; details: peptide delivering a cell impermeable protein-toxin
Excerpt: as §2

[5] = test system: cellular receptor; experiment: Receptor recycle vs new receptor synthesis in MGS internalization; type: cell-based
[6] = test system: Lymphoma Cells; experiment: Cellular location of MGS, lymphoma cells; type: cell-based
Excerpt: as §1

[7] = test system: Dendritic Cells; experiment: Cellular location of MGS, dendritic cells; type: cell-based; details: Intracellular = uptake confirmed, exact compartment not determined
Excerpt: as §1

[8] = target: T1, EphA2 (Homo sapiens, UniProt P29317); experiment: EphA2 dependence of MGS_H1299.2 V4 cell binding and internalization; type: cell-based
T1 construct: endogenous in cells
Excerpt: (§3) The cellular receptor for MGS_H1299.2 v4 is EphA2. The following results were obtained during a study on EphA2.

[9] = target: T1, EphA2; experiment: MGS_H1299.2 V4 binding to purified EphA2; details: EphA2 study
Excerpt: as §3

[10] = test system: Cardiomyocytes; experiment: Cellular location of MGS, cardiomyocytes; type: cell-based; details: Intracellular = uptake confirmed, exact compartment not determined
Excerpt: as §1

[11] = test system: NSCLC cell lines; experiment: Cellular uptake kinetics of valency versions of HCC15.2; type: cell-based; details: 4 NSCLC cell lines

T1 sequence (P29317 24-976, species assumed): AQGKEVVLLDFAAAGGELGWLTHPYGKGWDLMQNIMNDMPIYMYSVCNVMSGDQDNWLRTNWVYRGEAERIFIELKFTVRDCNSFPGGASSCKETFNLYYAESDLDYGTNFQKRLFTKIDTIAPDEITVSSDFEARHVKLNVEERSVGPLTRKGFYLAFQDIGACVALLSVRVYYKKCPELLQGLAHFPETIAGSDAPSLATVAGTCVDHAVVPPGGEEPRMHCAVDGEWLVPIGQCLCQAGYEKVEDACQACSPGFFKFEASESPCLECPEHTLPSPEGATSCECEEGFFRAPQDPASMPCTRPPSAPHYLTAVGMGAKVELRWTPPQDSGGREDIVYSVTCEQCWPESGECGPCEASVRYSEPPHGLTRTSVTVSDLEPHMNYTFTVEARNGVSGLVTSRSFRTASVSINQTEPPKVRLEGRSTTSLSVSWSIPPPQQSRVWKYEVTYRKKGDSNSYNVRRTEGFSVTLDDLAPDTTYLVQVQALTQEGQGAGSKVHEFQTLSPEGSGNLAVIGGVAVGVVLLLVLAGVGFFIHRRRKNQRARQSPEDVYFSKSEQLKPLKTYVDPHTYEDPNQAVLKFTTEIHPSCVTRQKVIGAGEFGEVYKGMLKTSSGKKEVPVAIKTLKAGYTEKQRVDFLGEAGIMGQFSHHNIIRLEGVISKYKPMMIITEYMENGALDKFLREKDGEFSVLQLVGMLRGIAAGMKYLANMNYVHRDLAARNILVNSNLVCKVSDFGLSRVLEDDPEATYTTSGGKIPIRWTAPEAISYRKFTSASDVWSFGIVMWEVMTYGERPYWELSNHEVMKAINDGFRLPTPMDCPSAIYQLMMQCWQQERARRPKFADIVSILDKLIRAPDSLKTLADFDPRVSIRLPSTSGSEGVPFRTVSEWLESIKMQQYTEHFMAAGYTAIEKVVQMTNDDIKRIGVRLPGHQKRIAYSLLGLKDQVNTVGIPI

Compound	Cellular Location [1]	other results
EHPWFNMWSWATQVQE [MGS_H2009.2]	MGS_H2009.2_Lysosome	cell binding specificity [2]: binds to 3 different non-small cell lung cancer cells with minimal binding to normal control cells; intracellular delivery of MAb [3]: delivers a MAb intracellularly; potency to induce cell death [4]: 0.08 µM
CH3CO—RGDLATLRQL—PEG11—YC—NH2 (Ac-RGDLATLRQL[PEG11′]YC-NH2) [MGS_H2009.1 v4]		fate of the bound cellular receptor upon internalization [5]: rapidly recycled back to the cell surface
YPGSPTQYPSSMHEYHSSSE [MGS_H2009.3]	MGS_H2009.3_Lysosome	
MTVCNASQRQAHAQATAVSL [MGS_A549.1]	MGS_A549.1_Intracellular	
AHTIDDEWASYHMQQWNSPP [MGS_H2009.4]	MGS_H2009.4_Golgi/ER	
CH3CO—FHAVPQSFYT—PEG11—C—NH2 (Ac-FHAVPQSFYT[PEG11′]C-NH2) [HCC15.2 v8]		fate of the bound cellular receptor upon internalization [5]: primarily degraded upon internalization
RGDLATLRQLAQEDGVVGVR [MGS_H2009.1]	MGS_H2009.1_Golgi	
QEALEEWFWKMMPWSGPSGQ [MGS_H1993.3]	MGS_H1993.3_Intracellular	
ATEPRKQYATPRVFWTDAPG [MGS_HCC15.1]	MGS_HCC15.1_Intracellular	
LQWRRDDNVHNFGVWARYRL (Ac-LQWRRDDNVHNFGVWARYRL) [MGS_1299.3]	MGS_1299.3_Lysosome/; also recorded: Autophagosomes	
SAKTAVSQRVWLPSHRGGEP [MGS_A20.1]		Cellular Location [6]: MGS_A20.1_PlasmaMembrane
SADWFQGPAEWLLEGWMGPL [MGS_H1993.6]	MGS_H1993.6_Intracellular	
YAAWPASGAWTGTAPCSAGT [MGS_H1299.2]	MGS_H1299.2_Intracellular	
KSREHVNNSACPSKRITAAL [MGS_A20.2]		Cellular Location [6]: MGS_A20.2_Plasma Membrane
FAAKRAEWWDPGQLWDAVWN [MGS_H1993.2]	MGS_H1993.2_Intracellular	
GPEDTSRAPENQQKTFHRRW [MGS_XS52.1]		Cellular Location [7]: MGS_XS52.1_Intacellular
VSQTMRQTAVPLLWFWTGSL [MGS_H1299.1]	MGS_H1299.1_Intracellular	
SVEYWGERMYYDVMESLGFS [MGS_H1993.1]	MGS_H1993.1_Lysosome	
CH3CO—LQWRRNFGVWARYRL—PEG11—C—NH2 (Ac-LQWRRNFGVWARYRL[PEG11′]C-NH2) [HCC15.1 v4]		fate of the bound cellular receptor upon internalization [5]: primarily degraded upon internalization
CC(=O)N[C@@H](Cc1ccc(O)cc1)C(=O)N[C@@H](C)C(=O)N[C@@H](C)C(=O)N[C@@H](Cc1c[nH]c2ccccc12)C(=O)N1CCC[C@H]1C(=O)N[C@@H](C)C(=O)N[C@@H](CO)C(=O)NCC(=O)N[C@@H](C)C(=O)N[C@@H](Cc1c[nH]c2ccccc12)C(=O)N[C@H](C(=O)NCCOCCOCCOCCOCCOCCOCCOCCOCCOCCOCCOCCC(=O)N[C@@H](CS)C(N)=O)[C@@H](C)O [MGS_H1299.2 V4, CH3CO—YAAWPASGAWT—PEG11—C—NH2] (Ac-YAAWPASGAWT[PEG11]C-NH2)		EphA2 internalization and co-localization [8]: induces EphaA2 internalization and co-localizes with the receptor in lysosome; peptide binding to cells ([8]; increasing EphA2 in cells): increases MGS_H1299.2 V4 binding; peptide binding to cells ([8]; reduction of EphA2 in cells): abrogates MGS_H1299.2 V4 binding; fate of the bound cellular receptor upon internalization [5]: primarily degraded upon internalization; competition with EprhrinA1 for binding [9]: compete for binding
FEEFYSRQSNTIPYPQQYKG [MGS_H2009.5]	MGS_H2009.5_ER/Lysosome	
WLSEAGPVVTVRALRGTGSW [MGS_PCM.1]		Cellular Location [10]: MGS_PCM.1_Intracellular; Cellular Location [6]: MGS_PCM.1_Plasma Membrane
FHAVPQSFYTAP [MGS_HCC15.2]	MGS_HCC15.2_Intracellular	change of peptide affinity with valency ([11]; dimer): significant enhancement of peptide affinity with dimerization; change of peptide affinity with valency ([11]; tetramer): modest improvement upon tetramerization
TWTDFGQWPWPFGAEGTRAF [MGS_H1993.4]	MGS_H1993.4_Pre-mitotic cells only	
EAMNSAEQSAAVVQWEKRRI [MGS_H460.1]	MGS_H460.1_PlasmaMembrane	
MDGATWWTQLDPLLVWEGET [MGS_H1993.5]	MGS_H1993.5_Intracellular	
